23 molecules from BindingDB's records for doi:10.1016/j.bmcl.2009.07.052 (Incyte, 2009) can be followed below.

The test concerns the target Receptor tyrosine-protein kinase erbB-2 (Homo sapiens, UniProt P04626). The test is described as follows: Inhibition of HER-2.

Chain of Receptor tyrosine-protein kinase erbB-2 (P04626 whole entry): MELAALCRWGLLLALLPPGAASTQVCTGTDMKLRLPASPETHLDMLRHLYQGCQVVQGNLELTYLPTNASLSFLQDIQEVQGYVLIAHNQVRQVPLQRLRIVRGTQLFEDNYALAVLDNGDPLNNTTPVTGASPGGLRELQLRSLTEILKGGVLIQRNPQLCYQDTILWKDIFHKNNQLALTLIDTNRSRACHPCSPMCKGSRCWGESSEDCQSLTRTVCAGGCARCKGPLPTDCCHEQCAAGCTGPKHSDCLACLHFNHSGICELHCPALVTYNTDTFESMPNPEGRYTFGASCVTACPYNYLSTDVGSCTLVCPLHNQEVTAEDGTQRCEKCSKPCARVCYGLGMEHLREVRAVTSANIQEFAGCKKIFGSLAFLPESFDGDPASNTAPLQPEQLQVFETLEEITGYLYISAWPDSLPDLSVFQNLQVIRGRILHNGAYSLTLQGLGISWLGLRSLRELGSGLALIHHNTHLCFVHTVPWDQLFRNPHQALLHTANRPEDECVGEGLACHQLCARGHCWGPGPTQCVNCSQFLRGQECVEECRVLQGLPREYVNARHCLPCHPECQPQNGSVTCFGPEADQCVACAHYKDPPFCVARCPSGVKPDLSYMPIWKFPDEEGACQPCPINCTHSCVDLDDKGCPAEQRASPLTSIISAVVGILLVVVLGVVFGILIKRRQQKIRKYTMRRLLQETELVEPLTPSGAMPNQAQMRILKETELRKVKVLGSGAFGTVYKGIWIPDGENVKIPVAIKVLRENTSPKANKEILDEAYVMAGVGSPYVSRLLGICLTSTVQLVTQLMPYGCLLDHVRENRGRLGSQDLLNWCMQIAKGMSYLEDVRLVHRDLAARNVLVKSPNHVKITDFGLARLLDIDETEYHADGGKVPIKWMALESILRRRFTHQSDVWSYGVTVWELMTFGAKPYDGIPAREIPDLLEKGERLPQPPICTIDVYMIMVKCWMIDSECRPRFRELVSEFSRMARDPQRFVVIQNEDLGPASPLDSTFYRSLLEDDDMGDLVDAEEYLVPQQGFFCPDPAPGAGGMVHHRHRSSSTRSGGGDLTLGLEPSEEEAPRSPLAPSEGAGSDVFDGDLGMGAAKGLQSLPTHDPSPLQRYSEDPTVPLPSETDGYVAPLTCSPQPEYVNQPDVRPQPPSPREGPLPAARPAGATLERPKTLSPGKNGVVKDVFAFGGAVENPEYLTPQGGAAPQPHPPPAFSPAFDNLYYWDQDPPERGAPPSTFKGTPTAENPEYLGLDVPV

`CN1C[C@@H](OC(=O)N2CCCCCC2)C[C@H](C(=O)NO)[C@H]1C(=O)N1CCN(c2ccccc2)CC1` [(3S,5S,6S)-5-(hydroxycarbamoyl)-1-methyl-6-(4-phenylpiperazine-1-carbonyl)piperidin-3-yl azepane-1-carboxylate]: the IC50 (in general, the midpoint of a concentration-inhibition curve) worked out at 4.4 nM.

The molecule `CN1C[C@@H](OC(=O)N2CCCCC2)C[C@H](C(=O)NO)[C@H]1C(=O)N1CCN(c2ccccc2)CC1` [(3S,5S,6S)-5-(hydroxycarbamoyl)-1-methyl-6-(4-phenylpiperazine-1-carbonyl)piperidin-3-yl piperidine-1-carboxylate] gave an IC50 of 7.3 nM.

`CC(C)C(=O)N(C)C1CN[C@H](C(=O)N2CC=C(c3ccccc3)CC2)[C@@H](C(=O)NO)C1` (stereo partly drawn) [(2S,3S)-N-hydroxy-5-(N-methylisobutyramido)-2-(4-phenyl-1,2,3,6-tetrahydropyridine-1-carbonyl)piperidine-3-carboxamide] showed an IC50 of 15.5 nM. This IC50 is about 2.1-fold higher than that of the molecule before.

In the case of `O=C(NO)[C@H]1CC(CC(=O)N2CCCC2)CN[C@@H]1C(=O)N1CC=C(c2ccccc2)CC1` (stereo partly drawn) [(2S,3S)-N-hydroxy-5-(2-oxo-2-(pyrrolidin-1-yl)ethyl)-2-(4-phenyl-1,2,3,6-tetrahydropyridine-1-carbonyl)piperidine-3-carboxamide], the IC50 came to 4.3 nM.

The molecule `O=C(NO)[C@H]1CC(OC(=O)N2CCCC2)CN[C@@H]1C(=O)N1Cc2ccccc2C1` (stereo partly drawn) [(5S,6S)-5-(hydroxycarbamoyl)-6-(isoindoline-2-carbonyl)piperidin-3-yl pyrrolidine-1-carboxylate] displayed an IC50 of 70 nM.

The molecule `CN1C[C@@H](OC(=O)N2CC=CC2)C[C@H](C(=O)NO)[C@H]1C(=O)N1CCN(c2ccccc2)CC1` [(3S,5S,6S)-5-(hydroxycarbamoyl)-1-methyl-6-(4-phenylpiperazine-1-carbonyl)piperidin-3-yl 2,5-dihydro-1H-pyrrole-1-carboxylate] gave an IC50 of 3.8 nM.

Regarding `CN(C(=O)c1ccccc1)C1CN[C@H](C(=O)N2CC=C(c3ccccc3)CC2)[C@@H](C(=O)NO)C1` (stereo partly drawn) [(2S,3S)-N-hydroxy-5-(N-methylbenzamido)-2-(4-phenyl-1,2,3,6-tetrahydropyridine-1-carbonyl)piperidine-3-carboxamide], half-maximal inhibition (IC50) was put at 10 nM.

As for `COC(=O)N1C[C@@H](OC(=O)N2CCCC2)C[C@H](C(=O)NO)[C@H]1C(=O)N1CCN(c2ccccc2)CC1` [(2S,3S,5S)-methyl 3-(hydroxycarbamoyl)-2-(4-phenylpiperazine-1-carbonyl)-5-(pyrrolidine-1-carbonyloxy)piperidine-1-carboxylate], it took 8.1 nM to reach half-maximal inhibition (IC50).

As to `CN1C[C@@H](OC(=O)N2CCC(F)(F)C2)C[C@H](C(=O)NO)[C@H]1C(=O)N1CCN(c2ccccc2)CC1` [(3S,5S,6S)-5-(hydroxycarbamoyl)-1-methyl-6-(4-phenylpiperazine-1-carbonyl)piperidin-3-yl 3,3-difluoropyrrolidine-1-carboxylate], the IC50 amounted to 50.5 nM.

In turn, `CC(C)OC(=O)N(C)C1CN[C@H](C(=O)N2CC=C(c3ccccc3)CC2)[C@@H](C(=O)NO)C1` (stereo partly drawn) [isopropyl-(5S,6S)-5-(hydroxycarbamoyl)-6-(4-phenyl-1,2,3,6-tetrahydropyridine-1-carbonyl)piperidin-3-yl(methyl)carbamate] came in with an IC50 of 8.5 nM. This IC50 lies about 5.9-fold lower than the previous one.

The molecule `O=C(NO)[C@H]1C[C@H](OC(=O)N2CCCC2)CN[C@@H]1C(=O)N1CCN(c2ccccc2)CC1` [(5S,6S)-5-(hydroxycarbamoyl)-6-(4-phenylpiperazine-1-carbonyl)piperidin-3-yl pyrrolidine-1-carboxylate] yielded an IC50 of 3.8 nM.

Regarding `O=C(NO)[C@H]1C[C@H](OC(=O)N2CCCC2)CN[C@@H]1C(=O)N1CCC(c2ccccc2)CC1` [(5S,6S)-5-(hydroxycarbamoyl)-6-(4-phenylpiperidine-1-carbonyl)piperidin-3-yl pyrrolidine-1-carboxylate], the IC50 turned out to be 42 nM.

For `O=C(NO)[C@H]1CC(CC(=O)N2CCCC2)CN[C@@H]1C(=O)N1CC[C@H](c2ccccc2)C1` (stereo partly drawn) [(2S,3S)-N-hydroxy-5-(2-oxo-2-(pyrrolidin-1-yl)ethyl)-2-((R)-3-phenylpyrrolidine-1-carbonyl)piperidine-3-carboxamide], half-maximal inhibition (IC50) required 5.6 nM. Against the preceding molecule, the IC50 is about 7.5-fold lower.

The molecule `O=C(NO)[C@H]1CC(OC(=O)N2CCCC2)CN[C@@H]1C(=O)N1CC[C@H](c2ccccc2)C1` (stereo partly drawn) came in with an IC50 of 28 nM.

`CN(C)C(=O)O[C@H]1C[C@H](C(=O)NO)[C@@H](C(=O)N2CCN(c3ccccc3)CC2)N(C)C1` [(3S,5S,6S)-5-(hydroxycarbamoyl)-1-methyl-6-(4-phenylpiperazine-1-carbonyl)piperidin-3-yl dimethylcarbamate] came in with an IC50 of 31 nM. The IC50 values of the last two molecules are within 1.5-fold of each other.

The molecule `O=C(NO)[C@H]1C[C@@H](OC(=O)N2CCCC2)CN[C@@H]1C(=O)N1CC=C(c2ccccc2)CC1` [(3R,5S,6S)-5-(hydroxycarbamoyl)-6-(4-phenyl-1,2,3,6-tetrahydropyridine-1-carbonyl)piperidin-3-yl pyrrolidine-1-carboxylate] had an IC50 of 30 nM.

As for `CN(C(=O)c1ccccc1)C1CN[C@H](C(=O)N2CC[C@H](c3ccccc3)C2)[C@@H](C(=O)NO)C1` (stereo partly drawn) [(2S,3S)-N-hydroxy-5-(N-methylbenzamido)-2-((R)-3-phenylpyrrolidine-1-carbonyl)piperidine-3-carboxamide], the IC50 was found to be 29 nM.

Molecule `O=C(NO)[C@H]1CC(OC(=O)N2CCCC2)CN[C@@H]1C(=O)N1CC=C(c2ccccc2)CC1` (stereo partly drawn) [(5S,6S)-5-(hydroxycarbamoyl)-6-(4-phenyl-1,2,3,6-tetrahydropyridine-1-carbonyl)piperidin-3-yl pyrrolidine-1-carboxylate] gave an IC50 of 5.6 nM.

`CN1C[C@@H](OC(=O)N2CCCC2)C[C@H](C(=O)NO)[C@H]1C(=O)N1CCN(c2ccccc2)CC1` [(3S,5S,6S)-5-(hydroxycarbamoyl)-1-methyl-6-(4-phenylpiperazine-1-carbonyl)piperidin-3-yl pyrrolidine-1-carboxylate]: the IC50 stood at 11.5 nM. This IC50 lies about 2.1-fold higher than the previous one.

As to `O=C(NO)[C@H]1C[C@H](OC(=O)N2CCCC2)CN[C@@H]1C(=O)N1CC=C(c2ccccc2)C1` [(5S,6S)-5-(hydroxycarbamoyl)-6-(3-phenyl-2,5-dihydro-1H-pyrrole-1-carbonyl)piperidin-3-yl pyrrolidine-1-carboxylate], the IC50 was 11 nM.

As for `CN1C[C@@H](OC(=O)N2CCC2)C[C@H](C(=O)NO)[C@H]1C(=O)N1CCN(c2ccccc2)CC1` [(3S,5S,6S)-5-(hydroxycarbamoyl)-1-methyl-6-(4-phenylpiperazine-1-carbonyl)piperidin-3-yl azetidine-1-carboxylate], half-maximal inhibition (IC50) was put at 44.5 nM.

With `CN1C[C@@H](OC(=O)N2CCCCCCC2)C[C@H](C(=O)NO)[C@H]1C(=O)N1CCN(c2ccccc2)CC1` [(3S,5S,6S)-5-(hydroxycarbamoyl)-1-methyl-6-(4-phenylpiperazine-1-carbonyl)piperidin-3-yl azocane-1-carboxylate], half-maximal inhibition (IC50) required 27.5 nM.

In turn, `CC(C)C(=O)N(C)C1CN[C@H](C(=O)N2CC[C@H](c3ccccc3)C2)[C@@H](C(=O)NO)C1` (stereo partly drawn) [(2S,3S)-N-hydroxy-5-(N-methylisobutyramido)-2-((R)-3-phenylpyrrolidine-1-carbonyl)piperidine-3-carboxamide] had an IC50 of 52 nM.
